# Laboratory results from US20240239790A1, “7-Morpholino-1,6-Naphthyridin-5-yl Derivatives and Pharmaceutical Compositions Thereof Useful as DNA-PK Inhibitor” (adMare Therapeutics Society, priority 2021, published 2024).
# System: pH2AX induction in HCT116 ATM-/- multicellular tumour spheroids
# Assay: Prodrug Radiation Sensitization in Multicellular Tumour Spheroids, inhibition of pH2AX induction following radiation
# Assay type: cell-based
# Conditions: Homo sapiens, HCT-116, 20 Gy, 5% O2, inner layers, read-out: Prodrug 5% O2 Inner layers EC50
# Description: Prodrug compounds were assayed to determine their potency in 3D multicellular spheroids in media maintained under 20% vs 5% oxygen. Multicellular tumour spheroids were grown to approximately 0.5 mm in diameter and irradiated with 20 Gy in combination with inhibitor test compounds to determine their potency using HCT 116 and FaDu cell lines. Experiments were carried out in 96 well plates containing 0.7 mls of MEM media containing 10% FBS and 10 mM glucose under 5% CO2 at 37° C. Following dilution of compounds 1:1000 from DMSO stocks, compounds were serially diluted from 10 μM down to 3.5 nM and 5-10 spheroids added. 96 well plates were constantly stirred to avoid spheroids settling during the course of the experiment. Endpoints were pDNA-PK (ser 2056) or pH2AX (ser 139) status in spheroid cryosections taken 1 or 2 hours following radiation and fixed immediately in formalin. Using tumour cell lines deficient in ATM improved the assay signal to noise and gH2AX readout. Using this assay prodrug activity could be compared in the more oxygenated outer spheroid layers versus less oxygenated hypoxic central cell layers.
row,SMILES,EC50 [nM]
1,"Cn1c(Cn2cnnc2-c2cnc3cc(N4CCOCC4)nc(OC4CCC(Nc5ncccn5)CC4)c3c2)cnc1[N+](=O)[O-] (stereo not shown) [LFA135, N-[4-[[3-[4-[(3-Methyl-2-nitro-imidazol-4-yl)methyl]-1,2,4-triazol-3-yl]-7-morpholino-1,6-naphthyridin-5-yl]oxy]cyclohexyl]pyrimidin-2-amine]",1000 to 10000

# Same assay, conditions: Homo sapiens, HCT-116, 20 Gy, 5% O2, outer layers, read-out: Prodrug 5% O2 Outer layers EC50
row,SMILES,EC50 [nM]
1,"Cn1c(Cn2cnnc2-c2cnc3cc(N4CCOCC4)nc(OC4CCC(Nc5ncccn5)CC4)c3c2)cnc1[N+](=O)[O-] (stereo not shown) [LFA135, N-[4-[[3-[4-[(3-Methyl-2-nitro-imidazol-4-yl)methyl]-1,2,4-triazol-3-yl]-7-morpholino-1,6-naphthyridin-5-yl]oxy]cyclohexyl]pyrimidin-2-amine]",1000 to 10000

# Same assay, conditions: Homo sapiens, HCT-116, 20 Gy, 20% O2, outer layers, read-out: Prodrug 20% O2 Outer layers EC50
row,SMILES,EC50 [nM]
1,"Cn1c(Cn2cnnc2-c2cnc3cc(N4CCOCC4)nc(OC4CCC(Nc5ncccn5)CC4)c3c2)cnc1[N+](=O)[O-] (stereo not shown) [LFA135, N-[4-[[3-[4-[(3-Methyl-2-nitro-imidazol-4-yl)methyl]-1,2,4-triazol-3-yl]-7-morpholino-1,6-naphthyridin-5-yl]oxy]cyclohexyl]pyrimidin-2-amine]",1000 to 10000

# Target: T1, DNA-PK phosphorylation at Serine 2056 (Homo sapiens, UniProt P78527)
# T1 construct: FaDu cells were purchased from ATCC; host or cells: FaDu
# Assay: Cellular Assay for Inhibition of DNA-PK Phosphorylation at Serine 2056 in FaDu cells (sandwich ELISA, neocarzinostatin)
# Assay type: cell-based
# Conditions: pSer2056 DNA-PK, Table 3
# Description: FaDu cells were purchased from ATCC and maintained in MEM alpha medium (Life Technologies, cat. no. 12561) supplemented with 10% fetal bovine serum, and 1% GlutaMAX at 37° C. supplemented with 5% CO2. 50,000 cells were seeded to each well of a 96-well cell culture plate in 50 μL of culture medium and incubated for 16-24 hours. Three-fold serially diluted compounds were prepared in DMSO. Culture media was used to prepare compound treatments to 0.3% DMSO (dimethyl sulphoxide) content. Compound treatments were added to the cells for 1 hour prior incubation, followed by the addition of neocarzinostatin in fresh culture medium to 1 μg/mL final concentration for an additional 2 hours incubation to induce DNA DSBs (double-strand breaks). DMSO controls were incubated with fresh culture medium alone for the additional two hours incubation. The cells were then lysed and frozen at −20° C. Cell lysates were thawed on wet ice and protein concentrations quantified by BCA Protein Assay (Thermo #23225). Lysis buffer was used to normalize lysates by protein content and all lysates were then investigated by sandwich ELISA by means of DNA-PK-specific antibodies (Abcam ab44815: total DNA-PK; ab124918: phosphoserine-2056 DNA-PK) in sandwich ELISA format on the MSD S600MM platform (MesoScale Discovery). % inhibition was calculated for all data points: =1−(DATA_PT−AVERAGE(DMSO controls))/(AVERAGE(NCS controls)−AVERAGE(DMSO controls)). Logarithm of the molar concentration of compound was plotted against percent inhibition to calculate IC50 values, with curve fit settings for data fit to log(inhibitor) vs. normalized response—Variable slope using curve fit software (GraphPad Prism).
row,IC50 [nM],SMILES
1,< 100,"Cc1nc(N[C@H]2CC[C@@H](Oc3nc(N4CCOCC4)cc4ncc(NS(C)(=O)=O)cc34)CC2)ncc1OCCN1CCOCC1 [LFA2040, N-[5-[4-[[4-methyl-5-(2-morpholinoethoxy)pyrimidin-2-yl]amino]cyclohexoxy]-7-morpholino-1,6-naphthyridin-3-yl]methanesulfonamide]"
2,< 100,"CN1CCc2nc(N[C@H]3CC[C@@H](Oc4nc(N5CCOCC5)cc5ncc(O)cc45)CC3)ncc2C1 [LFA2078, 5-[4-[(6-methyl-7,8-dihydro-5H-pyrido[4,3-d]pyrimidin-2-yl)amino]cyclohexoxy]-7-morpholino-1,6-naphthyridin-3-ol]"
3,< 100,"CN1CCC(Oc2ccc(N[C@H]3CC[C@@H](Oc4nc(N5CCOCC5)cc5ncc(NS(C)(=O)=O)cc45)CC3)nc2)C1 (stereo partly shown) [LFA2006, N-[5-[4-[[5-(1-methylpyrrolidin-3-yl)oxy-2-pyridyl]amino]cyclohexoxy]-7-morpholino-1,6-naphthyridin-3-yl]methanesulfonamide]"
4,100 to 1000,"CN1CCN(CCOc2ccnc(N[C@H]3CC[C@@H](Oc4nc(N5CCOCC5)cc5ncc(NS(C)(=O)=O)cc45)CC3)n2)CC1 [LFA2026, N-[5-[4-[[4-[2-(4-methylpiperazin-1-yl)ethoxy]pyrimidin-2-yl]amino]cyclohexoxy]-7-morpholino-1,6-naphthyridin-3-yl]methanesulfonamide]"
5,< 100,"Cc1nc(N[C@H]2CC[C@@H](Oc3nc(N4CCOCC4)cc4ncc(NS(C)(=O)=O)cc34)CC2)ncc1N1CCN(C)CC1 [LFA2038, N-[5-[4-[[4-methyl-5-(4-methylpiperazin-1-yl)pyrimidin-2-yl]amino]cyclohexoxy]-7-morpholino-1,6-naphthyridin-3-yl]methanesulfonamide]"
6,< 100,"CN1CC[C@@H](Oc2cnc(N[C@H]3CC[C@@H](Oc4nc(N5CCOCC5)cc5ncc(NS(C)(=O)=O)cc45)CC3)nc2)C1 [LFA2037, N-[5-[4-[[5-[(3R)-1-methylpyrrolidin-3-yl]oxypyrimidin-2-yl]amino]cyclohexoxy]-7-morpholino-1,6-naphthyridin-3-yl] methanesulfonamide]"
7,100 to 1000,"CS(=O)(=O)Nc1cnc2cc(N3CCOCC3)nc(O[C@H]3CC[C@@H](Nc4ncc(C5=CCNCC5)cn4)CC3)c2c1 [LFA2021, N-[7-morpholino-5-[4-[[5-(1,2,3,6-tetrahydropyridin-4-yl)pyrimidin-2-yl]amino]cyclohexoxy]-1,6-naphthyridin-3-yl]methanesulfonamide]"
8,< 100,"CN1CC[C@H](Oc2cnc(N[C@H]3CC[C@@H](Oc4nc(N5CCOCC5)cc5ncc(NS(C)(=O)=O)cc45)CC3)nc2)C1 [LFA2036, N-[5-[4-[[5-[(3S)-1-methylpyrrolidin-3-yl]oxypyrimidin-2-yl]amino]cyclohexoxy]-7-morpholino-1,6-naphthyridin-3-yl] methanesulfonamide]"
9,10000 to 30000,"Cn1c(COc2cnc3cc(N4CCOCC4)nc(O[C@H]4CC[C@@H](Nc5nccnc5C#N)CC4)c3c2)cnc1[N+](=O)[O-] [LFA2095, 3-[[4-[[3-[(3-methyl-2-nitro-imidazol-4-yl)methoxy]-7-morpholino-1,6-naphthyridin-5-yl]oxy]cyclohexyl]amino]pyrazine-2-carbonitrile]"
10,< 100,"CN1CCN(c2cnc(N[C@H]3CC[C@@H](Oc4nc(N5CCOCC5)cc5ncc(O)cc45)CC3)nc2)CC1 [LFA2080, 5-[4-[[5-(4-methylpiperazin-1-yl)pyrimidin-2-yl]amino]cyclohexoxy]-7-morpholino-1,6-naphthyridin-3-ol]"
11,< 100,"CS(=O)(=O)Nc1cnc2cc(N3CCOCC3)nc(O[C@H]3CC[C@@H](Nc4ncc(OCCN5CCNCC5)cn4)CC3)c2c1 [LFA2022, N-[7-morpholino-5-[4-[[5-(2-piperazin-1-ylethoxy)pyrimidin-2-yl]amino]cyclohexoxy]-1,6-naphthyridin-3-yl]methanesulfonamide]"
12,< 100,"Oc1cnc2cc(N3CCOCC3)nc(O[C@H]3CC[C@@H](Nc4ncc(OCCN5CCOCC5)cn4)CC3)c2c1 [LFA2035, 7-morpholino-5-[4-[[5-(2-morpholinoethoxy)pyrimidin-2-yl]amino]cyclohexoxy]-1,6-naphthyridin-3-ol]"
13,< 100,"Cc1nc(N[C@H]2CC[C@@H](Oc3nc(N4CCOCC4)cc4ncc(NS(C)(=O)=O)cc34)CC2)ncc1OCCN1CCN(C)CC1 [LFA2039, N-[5-[4-[[4-methyl-5-[2-(4-methylpiperazin-1-yl)ethoxy]pyrimidin-2-yl]amino]cyclohexoxy]-7-morpholino-1,6-naphthyridin-3-yl]methanesulfonamide]"
14,< 100,"CN1CCc2nc(NC3CCC(Oc4nc(N5CCOCC5)cc5ncc(NS(C)(=O)=O)cc45)CC3)ncc2C1 (stereo not shown) [LFA2007, N-[5-[4-[(6-methyl-7,8-dihydro-5H-pyrido[4,3-d]pyrimidin-2-yl)amino]cyclohexoxy]-7-morpholino-1,6-naphthyridin-3-yl]methanesulfonamide]"
15,100 to 1000,"CN(C)CCOc1cnc(N[C@H]2CC[C@@H](Oc3nc(N4CCOCC4)cc4ncc(NS(C)(=O)=O)cc34)CC2)nc1 [LFA2024, N-[5-[4-[[5-[2-(dimethylamino)ethoxy]pyrimidin-2-yl]amino]cyclohexoxy]-7-morpholino-1,6-naphthyridin-3-yl]methanesulfonamide]"
16,100 to 1000,"CS(=O)(=O)Nc1cnc2cc(N3CCOCC3)nc(O[C@H]3CC[C@@H](Nc4ccc5c(n4)CCNC5)CC3)c2c1 [LFA2003, N-[7-morpholino-5-[4-(5,6,7,8-tetrahydro-1,6-naphthyridin-2-ylamino)cyclohexoxy]-1,6-naphthyridin-3-yl]methanesulfonamide]"
17,< 100,"CN1CCN(c2cnc(N[C@H]3CC[C@@H](Oc4nc(N5CCOCC5)cc5ncc(NS(C)(=O)=O)cc45)CC3)nc2)CC1 [LFA2032, N-[5-[4-[[5-(4-methylpiperazin-1-yl)pyrimidin-2-yl]amino]cyclohexoxy]-7-morpholino-1,6-naphthyridin-3-yl]methanesulfonamide]"
18,< 100,"CS(=O)(=O)Nc1cnc2cc(N3CCOCC3)nc(O[C@H]3CC[C@@H](Nc4ncc(OCCN)cn4)CC3)c2c1 [LFA2027, N-[5-[4-[[5-(2-aminoethoxy)pyrimidin-2-yl]amino]cyclohexoxy]-7-morpholino-1,6-naphthyridin-3-yl]methanesulfonamide]"
19,< 100,"CS(=O)(=O)Nc1cnc2cc(N3CCOCC3)nc(O[C@H]3CC[C@@H](Nc4ncc(OCCO)cn4)CC3)c2c1 [LFA2028, N-[5-[4-[[5-(2-hydroxyethoxy)pyrimidin-2-yl]amino]cyclohexoxy]-7-morpholino-1,6-naphthyridin-3-yl]methanesulfonamide]"

row,SMILES,IC50 [nM]
1,"CS(=O)(=O)Nc1cnc2cc(N3CCOCC3)nc(O[C@H]3CC[C@@H](Nc4ncc(N5CC6CCC(C5)N6)cn4)CC3)c2c1 [LFA2016, N-[5-[4-[[5-(3,8-diazabicyclo[3.2.1]octan-3-yl)pyrimidin-2-yl]amino]cyclohexoxy]-7-morpholino-1,6-naphthyridin-3-yl]methanesulfonamide]",100 to 1000

# System: FaDu cell line
# Assay: Prodrug Activation in Hypoxic Stirred Tumour Cell Suspensions
# Conditions: 10 μM, 4 hours, 0.2% O2
row,"Fraction of prodrug converted to active form, Hypoxic 0.2% O2",SMILES
1,D (D is 0 to 0.02),"Cn1c(Cn2cnnc2-c2cnc3cc(N4CCOCC4)nc(OC4CCC(Nc5ncccn5)CC4)c3c2)cnc1[N+](=O)[O-] (stereo not shown) [LFA135, N-[4-[[3-[4-[(3-Methyl-2-nitro-imidazol-4-yl)methyl]-1,2,4-triazol-3-yl]-7-morpholino-1,6-naphthyridin-5-yl]oxy]cyclohexyl]pyrimidin-2-amine]"

# Same assay, conditions: 10 μM, 4 hours, 5% O2
row,"Fraction of prodrug converted to active form, Oxic 5% O2",SMILES
1,D (D is 0 to 0.02),"Cn1c(Cn2cnnc2-c2cnc3cc(N4CCOCC4)nc(OC4CCC(Nc5ncccn5)CC4)c3c2)cnc1[N+](=O)[O-] (stereo not shown) [LFA135, N-[4-[[3-[4-[(3-Methyl-2-nitro-imidazol-4-yl)methyl]-1,2,4-triazol-3-yl]-7-morpholino-1,6-naphthyridin-5-yl]oxy]cyclohexyl]pyrimidin-2-amine]"
